This note sets out measurements from ChEMBL document CHEMBL4837201, “Increased antibacterial properties of indoline-derived phenolic Mannich bases” (Eur J Med Chem, 2021).

For orientation: MBC means the lowest tested concentration that kills the bacteria rather than only halting them. The term MIC denotes the lowest concentration found to suppress growth. For orientation: mortality means the share of the test organisms that died. What is called IC50 is the point on the concentration scale where inhibition reaches its midpoint.

Values after ≈ are worked out from the molar mass of the structure shown. Some results are limits rather than exact numbers.

For data set [1], the system named is Staphylococcus aureus. Description: Antibacterial activity against methicillin-sensitive Staphylococcus aureus ATCC 25923 assessed as inhibition of bacterial growth incubated for 16 to 24 hrs by broth microdilution method. Conditions: time 16-24 hrs. Format: functional. (In general: Broth dilution looks for growth in wells or tubes with falling amounts of substance.)

Data set [2] concerns Staphylococcus aureus. The experiment in a line: Antibacterial activity against Staphylococcus aureus ATCC 6538 assessed as inhibition of bacterial growth incubated for 16 to 24 hrs by broth microdilution method. The class given is functional. Conditions: time 16-24 hrs.
The subject of data set [3] is Staphylococcus aureus. Description: Antibacterial activity against methicillin-resistant Staphylococcus aureus CIP106760 assessed as inhibition of bacterial growth incubated for 16 to 24 hrs by broth microdilution method. Particulars: time 16-24 hrs. Format: functional.
Data set [4] concerns Enterococcus faecalis. Description: Antibacterial activity against Enterococcus faecalis ATCC 29212 assessed as inhibition of bacterial growth incubated for 16 to 24 hrs by broth microdilution method. The class given is functional. Particulars: time 16-24 hrs.
Data set [5] deals with Enterococcus faecalis. Description: Antibacterial activity against vancomycin-resistant Enterococcus faecalis ATCC 51299 assessed as inhibition of bacterial growth incubated for 16 to 24 hrs by broth microdilution method. The class given is functional. Conditions: time 16-24 hrs.
The test system of data set [6] is Staphylococcus epidermidis. The experiment in a line: Antibacterial activity against Staphylococcus epidermidis ATCC 12228 assessed as inhibition of bacterial growth incubated for 16 to 24 hrs by broth microdilution method. Conditions: time 16-24 hrs. The class given is functional.
The test system of data set [7] is Bacillus subtilis. The experiment in a line: Antibacterial activity against Bacillus subtilis ATCC 6633 assessed as inhibition of bacterial growth incubated for 16 to 24 hrs by broth microdilution method. The class given is functional. Particulars: time 16-24 hrs.
Data set [8] can be described thus: Antioxidant activity assessed as DPPH radical scavenging activity at 10 ug/ml by DPPH assay relative to control. Format: functional. Particulars: dose 10.0 µg/ml. Background: Loss of DPPH colour is used to gauge radical scavenging.
The nature of data set [9]: Toxicity in Artemia salina assessed as mortality at 10 ug/ml measured after 24 hrs. Conditions: at 10 µg/mL.
A short description of data set [10]: Toxicity in Saccharomyces cerevisiae ATCC 2601 assessed as reduction in cell viability measured after 24 hrs by microdilution method.

Consider `Cc1ccc(C(c2cc([N+](=O)[O-])ccc2O)N2CCc3c(C#N)cccc32)cc1` (stereo not given), for which the MBC in data set [1] was 85.8 µM (≈ 33.1 µg/mL); in data set [2], 40.5 µM (≈ 15.6 µg/mL); in data set [3], 21.4 µM (≈ 8.25 µg/mL); in data set [4], 42.9 µM (≈ 16.5 µg/mL); in [5] it was 172 µM (≈ 66.3 µg/mL); in data set [6], 302 µM (≈ 116 µg/mL). Also, the MBC in [7] came out at 9.43 µM (≈ 3.63 µg/mL). Moreover, the MIC in [1] came to 10.7 µM (≈ 4.12 µg/mL); in [2], 20.3 µM (≈ 7.82 µg/mL); in data set [3], 2.68 µM (≈ 1.03 µg/mL); in data set [4], 2.68 µM (≈ 1.03 µg/mL); in data set [5], 5.36 µM (≈ 2.07 µg/mL); in data set [6] it was 37.8 µM (≈ 14.6 µg/mL). The MIC in [7] stood at 4.71 µM (≈ 1.82 µg/mL). For the same molecule, the Activity in data set [8] is 19%.
For `Cc1ccccc1C(c1cc([N+](=O)[O-])ccc1O)N1CCc2cc([N+](=O)[O-])ccc21` (stereo not given), the MBC in data set [1] was 38.6 µM (≈ 15.6 µg/mL); in data set [2], 9.64 µM (≈ 3.91 µg/mL); in data set [3], 4.82 µM (≈ 1.95 µg/mL); in data set [4] it was 9.64 µM (≈ 3.91 µg/mL); in [5], 154 µM (≈ 62.4 µg/mL); in [6], 4.71 µM (≈ 1.91 µg/mL). In addition, the MBC in data set [7] came out at 2.36 µM (≈ 0.957 µg/mL). For the same molecule, the MIC was 1.2 µM (≈ 0.486 µg/mL) in [1]; 2.41 µM (≈ 0.977 µg/mL) in [2]; 1.2 µM (≈ 0.486 µg/mL) in data set [3]; 1.2 µM (≈ 0.486 µg/mL) in [4]; 2.41 µM (≈ 0.977 µg/mL) in data set [5]; less than 1.18 µM in data set [6]. Moreover, in [7], the MIC was less than 1.18 µM. Further, the mortality at 24 h, 10 ug/ml in data set [9] was found to be 3%. Moreover, the IC50 at 24 h in data set [10] (Saccharomyces cerevisiae, Saccharomyces cerevisiae ATCC 2601 cells) was 121 µM.
Turning to `Cc1ccc(C(c2cc([N+](=O)[O-])ccc2O)N2CCc3cc(Br)ccc32)cc1` (stereo not given), the MBC in data set [1] is 81.1 µM (≈ 35.6 µg/mL); in [2] it was less than 142 µM; in data set [3] it was 20.3 µM (≈ 8.92 µg/mL); in [4], 81.1 µM (≈ 35.6 µg/mL); in data set [5] it was 162 µM (≈ 71.2 µg/mL); in [6] it was 4.71 µM (≈ 2.07 µg/mL). In addition, the MBC in data set [7] was 9.43 µM (≈ 4.14 µg/mL). In addition, the MIC in data set [1] amounted to 10.1 µM (≈ 4.44 µg/mL); in [2] it was 17.8 µM (≈ 7.82 µg/mL); in data set [3], 5.07 µM (≈ 2.23 µg/mL); in [4] it was 5.07 µM (≈ 2.23 µg/mL); in [5], 10.1 µM (≈ 4.44 µg/mL); in data set [6], 9.43 µM (≈ 4.14 µg/mL). The MIC in data set [7] was found to be 4.71 µM (≈ 2.07 µg/mL). Further, the Activity in [8] was more than 80%.
With NYSTATIN, the IC50 in data set [10] came to 3.31 µM.
With `Cc1ccccc1C(c1cc([N+](=O)[O-])ccc1O)N1CCc2c(C#N)cccc21` (stereo not given), the MBC in data set [1] was found to be 81.1 µM (≈ 31.3 µg/mL); in data set [2], 20.3 µM (≈ 7.82 µg/mL); in data set [3] it was 20.3 µM (≈ 7.82 µg/mL); in data set [4], 81.1 µM (≈ 31.3 µg/mL); in data set [5], 162 µM (≈ 62.4 µg/mL); in data set [6], 18.9 µM (≈ 7.28 µg/mL). The MBC in [7] is 18.9 µM (≈ 7.28 µg/mL). For the same molecule, the MIC came out at 10.1 µM (≈ 3.89 µg/mL) in [1]; 5.07 µM (≈ 1.95 µg/mL) in [2]; 5.07 µM (≈ 1.95 µg/mL) in data set [3]; 5.07 µM (≈ 1.95 µg/mL) in data set [4]; 10.1 µM (≈ 3.89 µg/mL) in data set [5]; 2.36 µM (≈ 0.91 µg/mL) in data set [6]. For the same molecule, the MIC in data set [7] stood at 4.71 µM (≈ 1.82 µg/mL).
With `COc1ccc2c(c1)CCN2C(c1ccc(C)cc1)c1cc([N+](=O)[O-])ccc1O` (stereo not given), the MBC in data set [1] is 160 µM (≈ 62.5 µg/mL); in [2] it was 80 µM (≈ 31.2 µg/mL); in data set [3] it was 40 µM (≈ 15.6 µg/mL); in [4] it was 160 µM (≈ 62.5 µg/mL); in data set [5] it was 160 µM (≈ 62.5 µg/mL); in [6] it was 4.71 µM (≈ 1.84 µg/mL). Moreover, the MBC in data set [7] came to 4.71 µM (≈ 1.84 µg/mL). The MIC in [1] was 20 µM (≈ 7.81 µg/mL); in [2] it was 20 µM (≈ 7.81 µg/mL); in [3] it was 10 µM (≈ 3.9 µg/mL); in data set [4], 10 µM (≈ 3.9 µg/mL); in [5], 20 µM (≈ 7.81 µg/mL); in data set [6], less than 1.18 µM. The MIC in data set [7] was less than 1.18 µM.
As to `Cc1ccc(C(c2cc([N+](=O)[O-])ccc2O)N2CCc3cc(O)ccc32)cc1` (stereo not given), the MBC in data set [1] stood at 542 µM (≈ 204 µg/mL); in data set [2], 332 µM (≈ 125 µg/mL); in data set [3], 108 µM (≈ 40.7 µg/mL); in [4], 108 µM (≈ 40.7 µg/mL); in data set [5], 108 µM (≈ 40.7 µg/mL); in data set [6] it was 302 µM (≈ 114 µg/mL). For the same molecule, the minimum bactericidal concentration (MBC) in data set [7] was more than 9.43 µM. The MIC stood at 67.7 µM (≈ 25.5 µg/mL) in data set [1]; 166 µM (≈ 62.6 µg/mL) in [2]; 67.7 µM (≈ 25.5 µg/mL) in data set [3]; 135 µM (≈ 50.8 µg/mL) in data set [4]; 135 µM (≈ 50.8 µg/mL) in data set [5]; 37.8 µM (≈ 14.2 µg/mL) in data set [6]. For the same molecule, the MIC in data set [7] amounted to 2.4 µM (≈ 0.903 µg/mL). The Activity in data set [8] was more than 80%.
